Laboratory results reported in patent US9284348B2, “Method for synthesis of peptide using a carrier” (JITSUBO Co., Ltd., priority 2005, dated 2016).
In brackets after ≈: the same amount, converted by molar mass.

Legend:
[1] = Evaluation of solubility in organic solvents at 25° C.; format: physicochemical; conditions: tetrahydrofuran, organic solvent or mixture
Experimental: The compound 2 (2,4-bisoctadecyloxyphenylmethanol) thus obtained was measured for solubility in hexane, cyclohexane, dichloromethane and tetrahydrofuran, respectively, when used as solvents at 25° C.
3,4,5-Tris-octadecyloxybenzylalcohol (compound 6) having the following chemical formula was measured for solubility in various solvents at 25° C. similar to as in Example 1.

[2] = Evaluation of separation efficiency: excision of the compound from the carrier with trifluoroacetic acid/dichloromethane, material consumption by HPLC; format: physicochemical
Experimental: By stirring the obtained compound 7 (4-iodo-benzoic acid 2,4-bis-octadecyloxybenzyl ester) in solvents listed in Table 2 and for the times shown in Table 2, separation of the compound from the carrier was performed to obtain the reaction rate. In this case, the reaction rate was calculated by assessing the disappearance of material by HPLC.
Regarding compound 9 (4-iodo-benzoic acid 3,4,5-tris-octadecyloxybenzyl ester) having the following formula 6, which was prepared by condensing 4-iodobenzoic acid to compound 6 (3,4,5-tris-octadecyloxybenzyl alcohol), the separation reaction rate was measured under various conditions similar to in Example 2.
The above-obtained compound was evaluated for the separation efficiency, similar to Example 3, when it was stirred in dichloromethane containing 1% trifluoroacetic acid for 30 min. As a result, the reaction rate was 100%.

[3] = 1% trifluoroacetic acid/dichloromethane, 30 min
[4] = 10% trifluoroacetic acid/dichloromethane, 120 min
[5] = 50% trifluoroacetic acid/dichloromethane, 120 min

| Structure (SMILES) | solubility [1] [mg/mL] | Reaction rate (material consumption evaluated by HPLC measurement) [2, 3] | Reaction rate (material consumption evaluated by HPLC measurement) [2, 4] [%] | Reaction rate (material consumption evaluated by HPLC measurement) [2, 5] [%] |
| --- | --- | --- | --- | --- |
| CCCCCCCCCCCCCCCCCCCCCCOc1ccc(CO)c(OCCCCCCCCCCCCCCCCCCCCCC)c1 [2,4-bis-docosanoxyphenyl methanol] | 236 (≈ 312 mM) | – | – | – |
| CCCCCCCCCCCCCCCCCCCCCCOc1ccc(COC(=O)c2ccc(I)cc2)c(OCCCCCCCCCCCCCCCCCCCCCC)c1 [4-iodo-benzoic acid 2,4-bis-docosanoxybenzyl ester] | – | 100% | – | – |
| CCCCCCCCCCCCCCCCCCOc1ccc(COC(=O)c2ccc(I)cc2)c(OCCCCCCCCCCCCCCCCCC)c1 [Compound 7, 4-iodo-benzoic acid 2,4-bis-octadecyloxybenzyl ester] | – | 100% | 100 | 100 |
| CCCCCCCCCCCCCCCCCCOc1cc(COC(=O)c2ccc(I)cc2)cc(OCCCCCCCCCCCCCCCCCC)c1OCCCCCCCCCCCCCCCCCC [Compound 9, 4-iodo-benzoic acid 3,4,5-tris-octadecyloxybenzyl ester, reference compound] | – | 1< % | 12 | 100 |
